Assay results reported in article PMC12549532, “The complete λ-carrageenan depolymerization cascade from a marine Pseudoalteromonad revealed by structural analysis of the enzymes” (The Journal of Biological Chemistry, 2025).
Where a chain is given by its changes, count along the chain named.

What was measured:
GH2 [1] = target: T1, GH2 (Pseudoalteromonas distincta, UniProt Z9L5V2N5Y9); test: chromogenic activity assay (data not shown)
T1 sequence (Z9L5V2N5Y9 24-826): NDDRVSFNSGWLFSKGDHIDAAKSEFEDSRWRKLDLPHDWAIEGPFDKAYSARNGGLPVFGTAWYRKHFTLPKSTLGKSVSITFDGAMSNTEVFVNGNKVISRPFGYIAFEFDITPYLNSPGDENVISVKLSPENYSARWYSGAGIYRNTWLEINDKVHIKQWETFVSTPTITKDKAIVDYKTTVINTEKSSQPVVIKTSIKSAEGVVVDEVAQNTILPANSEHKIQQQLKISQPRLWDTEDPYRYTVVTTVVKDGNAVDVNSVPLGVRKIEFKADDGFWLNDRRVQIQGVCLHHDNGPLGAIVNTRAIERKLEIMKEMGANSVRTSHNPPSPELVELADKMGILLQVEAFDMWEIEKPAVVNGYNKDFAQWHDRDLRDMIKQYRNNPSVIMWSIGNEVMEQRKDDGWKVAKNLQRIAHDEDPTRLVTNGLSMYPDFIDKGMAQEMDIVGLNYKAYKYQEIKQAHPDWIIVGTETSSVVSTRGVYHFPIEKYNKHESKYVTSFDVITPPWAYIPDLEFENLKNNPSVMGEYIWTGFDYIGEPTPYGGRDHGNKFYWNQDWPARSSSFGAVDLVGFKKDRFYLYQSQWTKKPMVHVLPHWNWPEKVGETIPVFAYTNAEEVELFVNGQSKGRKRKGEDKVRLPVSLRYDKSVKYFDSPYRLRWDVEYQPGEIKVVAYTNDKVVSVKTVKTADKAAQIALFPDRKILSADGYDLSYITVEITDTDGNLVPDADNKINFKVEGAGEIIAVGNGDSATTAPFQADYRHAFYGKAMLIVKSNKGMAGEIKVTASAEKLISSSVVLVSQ

GH2 [2] = target: T1, GH2; test: X-ray crystal structure, soaked; type: binding; design: without predicted signal peptide; pET28a N-terminal His-tag, cut with thrombin for crystals; E. coli Tuner (DE3); details: inhibitor in -1 subsite, capping loop closed
GH110A [3] = target: T2, GH110A (Pseudoalteromonas distincta, UniProt Z9OJ40UL04); test: X-ray crystal structure, soaked; type: binding; details: -1 subsite
T2 construct: without predicted signal peptide; pET28a N-terminal His-tag, cut with thrombin for crystals; E. coli host
T2 sequence (Z9OJ40UL04 24-600): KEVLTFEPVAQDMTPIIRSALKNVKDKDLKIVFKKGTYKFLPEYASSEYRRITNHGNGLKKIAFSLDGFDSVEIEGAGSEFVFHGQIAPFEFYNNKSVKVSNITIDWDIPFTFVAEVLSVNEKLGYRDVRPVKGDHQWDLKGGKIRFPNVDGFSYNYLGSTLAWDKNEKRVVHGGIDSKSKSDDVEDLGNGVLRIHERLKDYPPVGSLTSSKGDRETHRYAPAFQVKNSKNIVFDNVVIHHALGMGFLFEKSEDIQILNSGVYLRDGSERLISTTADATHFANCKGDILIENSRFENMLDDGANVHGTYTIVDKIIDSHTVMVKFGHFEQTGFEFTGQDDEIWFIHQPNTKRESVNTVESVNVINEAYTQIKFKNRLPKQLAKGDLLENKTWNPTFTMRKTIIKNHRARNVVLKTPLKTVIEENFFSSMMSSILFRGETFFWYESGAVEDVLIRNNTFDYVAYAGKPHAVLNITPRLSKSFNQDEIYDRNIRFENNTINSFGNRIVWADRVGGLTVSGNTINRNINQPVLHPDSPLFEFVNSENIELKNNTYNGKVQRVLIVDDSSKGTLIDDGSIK

GH110A [4] = target: T3, GH110A (Pseudoalteromonas distincta, UniProt Z9OJ40UL04, D324N, form not given); test: X-ray crystal structure, soaked; type: binding; details: inactive mutant; trisaccharide G6S in -1 subsite modelled, partial occupancy in +1 and +2
T3 construct: without predicted signal peptide; pET28a N-terminal His-tag, cut with thrombin for crystals; E. coli host
T3 sequence (Z9OJ40UL04 24-600 D324N): T2 sequence (Z9OJ40UL04 24-600) with D301N

S1_8B [5] = target: T4, S1_8B (Pseudoalteromonas distincta, UniProt Z9FD83UQX5, S94C, form not given); test: preparative desulfation, product seen in crystal complexes; type: biochemical; details: 2-O-desulfation of the non-reducing end
T4 construct: without predicted signal peptide; pET28a N-terminal His-tag, cut with thrombin for crystals; E. coli BL21 (DE3) Star
T4 sequence (Z9FD83UQX5 24-541 S94C): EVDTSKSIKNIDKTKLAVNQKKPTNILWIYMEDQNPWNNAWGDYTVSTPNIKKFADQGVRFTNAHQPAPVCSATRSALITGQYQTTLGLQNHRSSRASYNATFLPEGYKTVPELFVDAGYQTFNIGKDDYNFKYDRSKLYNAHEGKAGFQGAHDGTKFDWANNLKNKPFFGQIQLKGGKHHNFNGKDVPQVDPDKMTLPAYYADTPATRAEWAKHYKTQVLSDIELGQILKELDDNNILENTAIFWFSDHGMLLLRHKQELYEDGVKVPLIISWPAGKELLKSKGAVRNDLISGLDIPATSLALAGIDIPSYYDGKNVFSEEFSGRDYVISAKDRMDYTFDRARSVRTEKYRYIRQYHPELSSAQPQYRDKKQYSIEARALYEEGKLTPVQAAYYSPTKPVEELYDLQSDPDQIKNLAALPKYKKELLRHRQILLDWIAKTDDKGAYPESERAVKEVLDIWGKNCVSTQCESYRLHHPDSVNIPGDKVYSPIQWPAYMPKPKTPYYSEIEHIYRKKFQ

S1_8B [6] = target: T5, S1_8B (Pseudoalteromonas distincta, UniProt Z9FD83UQX5); test: X-ray crystal structure, soaked; type: binding; details: inactive mutant (printed C84S); 2.1 Å; modelled as fully sulfated Hex4S6
T5 construct: without predicted signal peptide; pET28a N-terminal His-tag, cut with thrombin for crystals; E. coli BL21 (DE3) Star
T5 sequence (Z9FD83UQX5 24-541): T4 sequence (Z9FD83UQX5 24-541 S94C) with C71S

For `O=[N+]([O-])c1ccc(O[C@@H]2O[C@H](CO)[C@H](O)[C@H](O)[C@H]2O)cc1` [pNP-β-Gal, pNP-β-D-galactopyranoside], the “chromogenic activity assay (data not shown)” value (GH2 [1]) was “GH2 was active on pNP-β-D-galactopyranoside (pNP-β-Gal; not shown)”.

With `OC[C@H]1CNC[C@@H](O)[C@H]1O` [GIF, galactoisofagomine] the “X-ray crystal structure, soaked” value (GH2 [2]) was “The structure of GH2 in complex with the inhibitor galactoisofagomine (GIF)”.

For `O=S(=O)(O)OC[C@H]1OC(O)[C@H](O)[C@@H](O)[C@H]1O` (stereo partly drawn) [G6S], the “X-ray crystal structure, soaked” value (GH110A [3]) was “We determined the structure of GH110A in complex with the monosaccharide G6S”.

`O=S(=O)(O)OC[C@H]1O[C@H](O[C@H]2[C@@H](O)[C@@H](CO)O[C@@H](O[C@@H]3[C@H](O)[C@@H](OS(=O)(=O)O)[C@@H](O[C@H]4[C@@H](O)[C@@H](CO)OC(O)[C@@H]4OS(=O)(=O)O)O[C@@H]3COS(=O)(=O)O)[C@@H]2OS(=O)(=O)O)[C@H](O)[C@@H](O)[C@H]1O` (stereo partly drawn) [λ-NC4 pre-treated with S1_8B] was tested, and the “X-ray crystal structure, soaked” value (GH110A [4]) was “determining its structure in complex with λ−NC4 that was pre-treated with S1_8B”.

For `O=S(=O)(O)OC[C@H]1O[C@H](O[C@H]2[C@@H](O)[C@@H](CO)O[C@@H](O[C@@H]3[C@H](O)[C@@H](OS(=O)(=O)O)[C@@H](O[C@H]4[C@@H](O)[C@@H](CO)OC(O)[C@@H]4OS(=O)(=O)O)O[C@@H]3COS(=O)(=O)O)[C@@H]2OS(=O)(=O)O)[C@H](OS(=O)(=O)O)[C@@H](O)[C@H]1O` (stereo partly drawn) [λ-NC4, λ-neocarratetraose], the “preparative desulfation, product seen in crystal complexes” value (S1_8B [5]) was “pretreated with S1_8B to convert the non-reducing end residue to G6S” and the “X-ray crystal structure, soaked” value (S1_8B [6]) was “We were able to model both tetrasaccharides as fully sulfated λ−NC4 (i.e., Hex4S6)”.
